Data on 3 compounds can be found in patent publication US9840470B2, “Targeting GLI proteins in human cancer by small molecules” (The Regents of the University of California, priority 2013, dated 2017).

The nature of series [1]: Histological (H&E) examination of mouse organs for toxicity. In kind it is in vivo. The conditions noted are these: i.p. two doses daily for 6 days; liver, spleen, kidney, heart. An excerpt: (§1) After the in vivo studies were completed, different organs were resected from mice. These organs included liver, lung, heart, kidney, intestines, ovary, brain, spleen, skin, and muscle. The specimens were fixed in 4% buffered formaldehyde, embedded in paraffin, sectioned, and histologically analyzed by hematoxylin and eosin (HE) staining. The HE stained slides were examined by a mouse pathologist for toxicity evidence from all the organs as compared with vehicle controls. In addition, leukocytes (WBC: white blood cell, NE: neutrophil, LY: lymphocyte, MO: monocyte, EO: eosinophil, BA: basophil) from each animal from all treatment groups were collected and leukocyte population was counted through a blood cell counter.
To analyze toxicity of the Compounds 1, 2, 4, and 6 in vivo, each group (three mice) was i.p. injected with two doses of each Compound daily for 6 days, and then major mouse organs, such as liver, spleen, kidney, and heart were resected from the mice.

Series [2] concerns Hedgehog signaling pathway. The series can be described thus: Quantitative RT-PCR of Hh pathway genes in xenograft tumors. Format: in vivo, mouse. The conditions noted are these: Melanoma tumor (MelJuso), pooled tumor from two mice. As for the experimental part:
(§2) Total RNA was isolated using Qiagen RNeasy Mini Kit (Valencia, Calif.). Hybridization probes and primers (Table 1) were purchased from Applied Biosystems (ABI, Foster City, Calif.). cDNA synthesis and Taqman® PCR were performed according to the manufactures' protocols. The gene expression was assayed in triplicate in ABI 7300 Real-time PCR System. Samples were normalized to their housekeeping gene GAPDH and then calculated by using 2^−dct method.
To examine whether Compounds 1, 2, 4, and 6 suppressed tumor growth through inhibition of the Hedgehog signaling pathway in vivo, expression of the key components and direct target genes of the Hh pathway (e.g. Gli1, Gli2, Gli3, HHIP and Cyclin D1) were analyzed by quantitative real-time RT-PCR using total RNA isolated from the xenograft tumors. GAPDH served as a control. This RT-PCR analysis was performed using a “pooled” tumor from two randomly selected mice of each group with reasonable size tumors. […] The results are shown in FIG. 4, where C is control and V is vehicle.

In another series the test system is mesothelioma MS-1. The series can be described thus: In vivo efficacy, mouse xenograft model (mesothelioma MS-1). To be noted: 50 mg/kg body weight i.p. daily for 14 days, from ten days after inoculation. Here is the method: (§3) The administered compounds were tested in vivo in the mouse xenograft model bearing human cancer cells. Briefly, female athymic nude mice strain NCRNU-M (5-10 weeks old, 20-25 grams in weight; Taconic, Germantown, N.Y.) was maintained in pathogen-free conditions. Three human cancer cell lines: NSCLC A549, melanoma MelJuso, and mesothelioma MS-1 were used. Five or ten mice were used in each group and injected s.c. with 3×10^6 cancer cells in the dorsal area in a volume of 100 μl. After inoculation, human cancer cells were allowed to grow in mice for 10-13 days to become visible tumor nodules. Animals were then injected with a compound of the embodiments at a dose of 50 mg/kg body weight (1 mg/mouse per day). Vehicle alone was used as control. The compounds and controls were adjusted in 40 ul volume for i.p. injection in the abdomens of the mice. Injections were performed daily around the same time for 14 days. […] Tumor size was measured every three to four days, and tumor volumes were calculated using width (x) and length (y) (x^2y/2, where x<y). Throughout this period, general toxicity of the treatments was also monitored by measuring body weight of the mice. […]
In vivo efficacy study of Compounds 1 and 4 were performed using a Mouse Xenograft Model (Mesothelioma MS-1). […] Tumor sizes was measured twice weekly until the completion of the experiments. […]

The subject of another series is melanoma MelJuso. The series can be described thus: In vivo efficacy, mouse xenograft model (melanoma MelJuso). To be noted: for tumor growth: 50 mg/kg body weight i.p. daily for 14 days, from 13 days after inoculation; for tumor weight (FIG. 1): melanoma MelJuso xenograft, after treatment. As for the experimental part:
(§4) The administered compounds were tested in vivo in the mouse xenograft model bearing human cancer cells. Briefly, female athymic nude mice strain NCRNU-M (5-10 weeks old, 20-25 grams in weight; Taconic, Germantown, N.Y.) was maintained in pathogen-free conditions. Three human cancer cell lines: NSCLC A549, melanoma MelJuso, and mesothelioma MS-1 were used. Five or ten mice were used in each group and injected s.c. with 3×10^6 cancer cells in the dorsal area in a volume of 100 μl. After inoculation, human cancer cells were allowed to grow in mice for 10-13 days to become visible tumor nodules. Animals were then injected with a compound of the embodiments at a dose of 50 mg/kg body weight (1 mg/mouse per day). Vehicle alone was used as control. The compounds and controls were adjusted in 40 ul volume for i.p. injection in the abdomens of the mice. Injections were performed daily around the same time for 14 days. Tumors were allowed to grow for 1-2 additional weeks after completion of the compound treatments. Tumor size was measured every three to four days, and tumor volumes were calculated using width (x) and length (y) (x^2y/2, where x<y). Throughout this period, general toxicity of the treatments was also monitored by measuring body weight of the mice. Data was presented as mean values (±S.D.).
In vivo efficacy study of Compounds 1, 2, 4, and 6 were performed using a Mouse Xenograft Model (Melanoma MelJuso). Mice were injected s.c. with 3×10^6 cells in the dorsal area in a volume of 100 μl. 13 days after inoculation, the mice started receiving treatments with the administered compound at a dose of 50 mg/kg body weight daily for 14 days (n=10). Vehicle alone was used as control (n=10). The administered compounds and vehicle were adjusted in a volume of 40 μl for i.p. injection in the abdomens of the mice. Tumor size and tumor volumes were calculated as described above.

A short description of series [3]: Preliminary in vivo toxicity: leukocyte population and body weight after treatment. To be noted: for changes of leukocyte population: at completion of the in vivo studies; for loss of body weight: during the course of drug administration. Also on record: species or system mouse. Here is the method: as §4, §1
(§5) As preliminary in vivo toxicity study of Compounds 1, 2, 4, and 6, it was examined if there were changes of leukocyte population and loss of body weight in the mice after the treatment. At the completion of the in vivo studies as described herein, leukocytes (WBC: white blood cell, NE: neutrophil, LY: lymphocyte, MO: monocyte, EO: eosinophil, BA: basophil) from each animal from all treatment groups were collected and leukocyte population was counted through a blood cell counter. Body weights of control groups (n=10) and the treated group (n=10) were measured using a scale during the course of drug administration. […] In an additional toxicity study, effect of different doses of compounds 4 and 6 on the body weight of mice was examined. The compounds were i.p. injected in the abdomens at 3 different doses: 25, 50, and 100 mg/kg body weight to mice (3 mice per dosing group) for 6 consecutive days.

Another series relates to Wnt signaling pathway. The series can be described thus: Quantitative RT-PCR of canonical Wnt pathway genes in xenograft tumors. Format: in vivo, mouse. To be noted: Melanoma tumor, pooled tumor from two mice, compared to controls. As for the experimental part: as §2
To examine whether Compounds 1, 2, 4, and 6 suppressed tumor growth through inhibition of the Wnt signaling pathway in vivo, expression of the key components and direct target genes of the Wnt pathway (e.g. Wnt2, Axin2, EGFR, and Cyclin D1) were analyzed by quantitative real-time RT-PCR using total RNA isolated from the xenograft tumors. GAPDH served as a control. This RT-PCR analysis was performed using a “pooled” tumor from two randomly selected mice of each group with reasonable size tumors. […] The results are shown in FIG. 4, where C is control and V is vehicle.

In the next series the test system is NSCLC A549. The series can be described thus: In vivo efficacy, mouse xenograft model (lung cancer A549). To be noted: 50 mg/kg i.p. daily for 14 days, then 50 mg/kg daily for 1x7 days; tumors weighed 43 days after inoculation. As for the experimental part: as §3
In vivo efficacy study of Compounds 1 and 4 in Mouse Xenograft Model (NSCLC A549) was examined. […] 43 days after the initial tumor inoculation, tumors were dissected from the mice of each group and their weights were measured using a scale. […]

For series [4], the system named is human MM cell lines (mesothelioma cells). The series can be described thus: Combination treatment with chemotherapies, MTS proliferation assay, mesothelioma cells. In kind it is cell-based. The conditions noted are these: 72 hours, Combination Index. The source says:
(§6) Another assay for determining the number of viable cells in proliferation or cytotoxicity assays is the MTS assay, a colorimetric method. MTS assay reagents are commercially available (Promega Corp., Madison, Wis.). The reagent contains a tetrazolium compound [3-(4,5-dimethylthiazol-2-yl)-5-(3-carboxymethoxyphenyl)-2-(4-sulfophenyl)-2H-tetrazolium, inner salt; MTS] and an electron coupling reagent (phenazine ethosulfate; PES). PES has enhanced chemical stability, which allows it to be combined with MTS to form a stable solution. The MTS tetrazolium compound (Owen's reagent) is bioreduced by cells into a colored formazan product that is soluble in tissue culture medium. This conversion may be accomplished by NADPH or NADH produced by dehydrogenase enzymes in metabolically active cells. The quantity of formazan product as measured by the absorbance at 490 nm is directly proportional to the number of living cells in culture. Because the MTS formazan product is soluble in tissue culture medium, this assay requires fewer steps than procedures that use tetrazolium compounds such as MTT. The formazan product of MTT reduction is a crystalline precipitate that requires an additional step in the procedure to dissolve the crystals before recording absorbance readings at 570 nm.
(§7) Combination treatments of the Compounds with several chemotherapies: erlotinib (Tarceva®), PI3K inhibitor LY294002, TGFβ inhibitor SB431542, and pemetrexed (Alimta®) were performed in human NSCLC and MM cell lines (FIGS. 12-17). In all experiments, NSCLC and MM cell lines were treated with different doses of each compound or combination for 72 hours, and MTS assays were performed to determine the cell proliferations. Combination Index (CI), calculated by CalcuSyn software (Biosoft, Cambridge, UK), was applied to describe the effect of the combination effects of two compounds, where CI<1 indicates Synergism, CI=1 indicates Additive effects, and CI>1 indicates Antagonism. Student's t-tests were applied for statistical analysis.
In general terms: Formazan colour is commonly taken as a measure of viable cells.

Series [5] in a line: Additional toxicity study: body weight at different doses. Format: in vivo, mouse. The conditions noted are these: i.p. 25, 50, and 100 mg/kg body weight for 6 consecutive days. As for the experimental part:
Each dosing group contained 3 mice. The body weight of mice was measured using a scale. Results are the means±SD (error bars).
as §5

Another series has as its system human NSCLC cell lines. The series can be described thus: Combination treatment with chemotherapies, MTS proliferation assay, lung cancer cells. The conditions noted are these: 72 hours, Combination Index. In kind it is cell-based.
Text: as §6, §7

As for `CC(C)(CO)CCCNC(=O)C1C(c2ccccc2)=NN(c2ccccc2)C1c1ccsc1` (stereo not drawn) [Compound 1, 1,3-diphenyl-5-thiophen-3-yl-4,5-dihydro-1H-pyrazole-4-carboxylic acid (5-hydroxy-4,4-dimethyl-pentyl)-amide], the “toxicity in organs (H&E histology)” value in [1] is “No noticeable toxicity”. In [2], the “Hh signaling (expression of Gli1, Gli2, Gli3, HHIP, Cyclin D1)” value (shortened to “Hh signaling”) is given as “inhibited”. In the series with mesothelioma MS-1, the “tumor weight compared to the control group” value is listed as “decreased”. Further, in the series on melanoma MelJuso, the tumor growth result is on record as “dramatically suppressed” and the “tumor weight (FIG. 1)” value is recorded as “significantly decreased”. In series [3], the “changes of leukocyte population” value is recorded as “No noticeable changes of leukocyte population” and the “loss of body weight” value is “No noticeable changes of leukocyte population or loss of the body weight”. Further, the “expression of the key indicator of the canonical Wnt activation” value in the series with Wnt signaling pathway is “significantly down-regulated”. Moreover, in the series with NSCLC A549, the “tumor weight compared to the control group” value is given as “decreased”.
In the case of `O=C(NCc1ccc(O)cc1)C1C(c2ccccc2)=NN(c2ccccc2)C1c1ccccc1` (stereo not drawn) [Compound 2, 1,3,5-triphenyl-4,5-dihydro-1H-pyrazole-4-carboxylic acid 4-hydroxy-benzylamide], in series [1], the “toxicity in organs (H&E histology)” value is reported as “No noticeable toxicity”. The “Hh signaling” value in series [2] was “inhibited”. Moreover, in the series with melanoma MelJuso, the tumor growth result is “dramatically suppressed” and the “tumor weight (FIG. 1)” value is reported as “significantly decreased”. In series [3], the “changes of leukocyte population” value was “No noticeable changes of leukocyte population” and the “loss of body weight” value was “No noticeable changes of leukocyte population or loss of the body weight”. The “expression of the key indicator of the canonical Wnt activation” value in the series with Wnt signaling pathway is reported as “significantly down-regulated”.
As for `CC(C)(CO)CCCNC(=O)C1C(c2ccc(F)cc2)=NN(c2ccccc2)C1c1cccc(F)c1` (stereo not drawn) [Compound 6, 3-(4-fluoro-phenyl)-5-(3-fluoro-phenyl)-1-phenyl-4,5-dihydro-1H-pyrazole-4-carboxylic acid (5-hydroxy-4,4-dimethyl-pentyl)-amide], in [4], the “combination effect with PI3K inhibitor LY294002” value is given as “synergy” and the “combination effect with pemetrexed (Alimta)” value is reported as “synergy”. The “toxicity in organs (H&E histology)” value in series [1] is “No noticeable toxicity”. Also, the “Hh signaling” value in series [2] was “inhibited”. In addition, the “loss of body weight” value in series [5] is listed as “no noticeable loss of the body weight”. Further, in the series on human NSCLC cell lines, the “combination effect with PI3K inhibitor LY294002” value is on record as “synergy” and the “combination effect with TGFβ inhibitor SB431542” value was “synergy”. Further, in the series with melanoma MelJuso, the tumor growth entry was “dramatically suppressed” and the “tumor weight (FIG. 1)” value is “significantly decreased”. For the same compound, in series [3], the “changes of leukocyte population” value is listed as “No noticeable changes of leukocyte population” and the “loss of body weight” value is listed as “No noticeable changes of leukocyte population or loss of the body weight”.
